Data taken from patent US20250144067A1, “PERSONALIZED STARVATION THERAPY FOR CANCER” (Faeth Therapeutics, Inc., priority 2021, published 2025).
Where a name gives a salt, the structure may show the parent alone. Read-outs that look alike come from different tables or passages of the source.

Legend:
[1] = test system: NCI-H292 lung cancer cells; assay: FDA drug screening, complete media vs cholesterol-free media without statin (TABLE 1); format: cell-based, human
[2] = test system: NCI-H292 lung cancer cells; assay: FDA drug screening, complete media vs cholesterol-free media with simvastatin (TABLE 2); format: cell-based, human
[3] = Complete minus Cholesterol-free, >0 enhanced anti-cancer activity, about 0 neutral, <0 antagonist
[4] = NCI-H292 cells, cholesterol-free media without statin
[5] = NCI-H292 cells, cholesterol-free media with simvastatin 0.04 μM, cell growth value in FDA drug screen
[6] = NCI-H292 cells, complete media, cell growth value in FDA drug screen
[7] = complete media minus cholesterol-free media + simvastatin, >0 enhanced anti-cancer activity, about 0 neutral, <0 antagonist
[8] = NCI-H292 cells, cholesterol-free media without statin, FDA drug library screen
[9] = NCI-H292 cells, complete media, FDA drug library screen
[10] = NCI-H292 cells, cholesterol-free media with simvastatin 0.04 μM, FDA drug library screen (TABLE 2)
[11] = NCI-H292 cells, complete media, FDA drug library screen (TABLE 2)
[12] = complete media minus cholesterol-free media + simvastatin (0.04 μM), >0 enhanced anti-cancer activity, about 0 neutral, <0 antagonist
[13] = complete vs cholesterol-free media, greater than 0 enhanced anti-cancer activity, about 0 neutral, below 0 antagonists
[14] = NCI-H292 cells, drug in cholesterol-free media with simvastatin 0.04 μM
[15] = NCI-H292 cells, drug in complete media
[16] = complete media vs cholesterol-free media + simvastatin (0.04 μM), >0 enhanced anti-cancer activity, about 0 neutral, <0 antagonist
[17] = Complete minus Cholesterol-free, greater than 0 enhanced anti-cancer activity, about 0 neutral, below 0 antagonists
[18] = NCI-H292 cells in cholesterol-free media without statin
[19] = NCI-H292 cells in complete media
[20] = NCI-H292 cells, FDA drug library screen, cholesterol-free media with simvastatin 0.04 μM
[21] = NCI-H292 cells, FDA drug library screen, complete media
[22] = NCI-H292 cells, FDA drug library screen, cholesterol-free media without statin
[23] = complete vs cholesterol-free media, >0 enhanced anti-cancer activity, about 0 neutral, <0 antagonist
[24] = NCI-H292 cells, FDA library drug in cholesterol-free media with simvastatin 0.04 μM
[25] = NCI-H292 cells, FDA library drug in complete media

Compound: NC(=O)C[C@H](N)C(=O)O [L-Asparagine]
- Difference [1, 3]: −0.27
- Cholesterol-free [1, 4]: 1.71
- Complete ([1]; NCI-H292 cells, complete media): 1.437
- Cholesterol-free media + simvastatin (0.04 μM) [2, 5]: 0.6588
- Complete Media [2, 6]: 0.704
- Difference [2, 7]: 0.05

Compound: COc1cc2nc(N3CCN(C(=O)C4CCCO4)CC3)nc(N)c2cc1OC (stereo not drawn) [Terazosin (hydrochloride dihydrate)]
- Difference [1, 3]: −0.06
- Cholesterol-free [1, 8]: 0.8804
- Complete [1, 9]: 0.821
- Cholesterol-free media + simvastatin (0.04 μM) [2, 10]: 1.029
- Complete Media [2, 11]: 0.9806
- Difference [2, 12]: −0.05

Compound: Nc1ncn([C@@H]2O[C@H](CO)[C@@H](O)[C@H]2O)c(=O)n1 [5-Azacytidine]
- Cholesterol-free [1, 4]: 1.157
- Complete ([1]; NCI-H292 cells, complete media): 0.8064
- Difference [1, 13]: −0.35
- Cholesterol-free media + simvastatin (0.04 μM) [2, 10]: 0.9383
- Complete Media [2, 11]: 0.8858
- Difference [2, 12]: −0.05

Compound: Nafamostat (mesylate)
- Cholesterol-free [1, 4]: 1.215
- Complete ([1]; NCI-H292 cells, complete media): 0.8839
- Difference [1, 13]: −0.33
- Cholesterol-free media + simvastatin (0.04 μM) [2, 14]: 1.2
- Complete Media [2, 15]: 0.9501
- Difference [2, 16]: −0.25

Compound: N[C@@H]1C[C@H]1c1ccccc1.N[C@@H]1C[C@H]1c1ccccc1.O=S(=O)(O)O [Tranylcypromine (hemisulfate)]
- Cholesterol-free [1]: 1.175
- Complete [1]: 0.8249
- Difference [1]: −0.35
- Cholesterol-free media + simvastatin (0.04 μM) [2]: 0.8773
- Complete Media [2]: 0.7026
- Difference [2]: −0.17

Compound: O=C1C2CC3CC1CC(O)(C3)C2 [Idramantone]
- Difference [1, 17]: −0.71
- Cholesterol-free [1, 18]: 1.638
- Complete [1, 19]: 0.9237
- Cholesterol-free media + simvastatin (0.04 μM) [2, 20]: 1.208
- Complete Media [2, 21]: 1.085
- Difference [2, 16]: −0.12

Compound: COc1ccc(C[C@H](N)C(=O)N[C@H]2[C@@H](O)[C@H](n3cnc4c(N(C)C)ncnc43)O[C@@H]2CO)cc1 [Puromycin (dihydrochloride)]
- Difference [1, 3]: −0.02
- Cholesterol-free [1, 8]: 0.005958
- Complete [1, 9]: −0.01645
- Cholesterol-free media + simvastatin (0.04 μM) [2, 10]: −0.002227
- Complete Media [2, 11]: −0.05066
- Difference [2, 12]: −0.05

Compound: CCC(=O)NC[C@@H]1C[C@H]1c1cccc2c1CCO2 [Tasimelteon]
- Difference ([1]; Complete minus Cholesterol-free, greater than 0 enhanced anti-cancer activity, about 0 neutral, below 0 antagonist): −0.12
- Cholesterol-free [1, 22]: 0.9406
- Complete [1, 21]: 0.8228
- Cholesterol-free media + simvastatin (0.04 μM) [2, 10]: 0.9943
- Complete Media [2, 11]: 0.9618
- Difference [2, 12]: −0.03

Compound: O=P(O)(O)C(O)(Cn1ccnc1)P(=O)(O)O [Zoledronic acid (monohydrate)]
- Difference [1, 3]: −0.23
- Cholesterol-free [1, 4]: 1.033
- Complete ([1]; NCI-H292 cells, complete media): 0.8069
- Cholesterol-free media + simvastatin (0.04 μM) [2, 20]: 0.7262
- Complete Media [2, 21]: 0.8945
- Difference [2, 7]: 0.17

Compound: Pergolide (mesylate)
- Cholesterol-free [1]: 1.027
- Complete [1]: 0.8214
- Difference [1]: −0.21
- Cholesterol-free media + simvastatin (0.04 μM) [2]: 0.9579
- Complete Media [2]: 1.079
- Difference [2]: 0.12

Compound: C[C@H](O)[C@H](O)[C@H]1CNc2nc(N)[nH]c(=O)c2N1 [Sapropterin (dihydrochloride)]
- Difference [1, 3]: −0.20
- Cholesterol-free [1, 4]: 1.242
- Complete ([1]; NCI-H292 cells, complete media): 1.038
- Cholesterol-free media + simvastatin (0.04 μM) [2, 14]: 1.145
- Complete Media [2, 15]: 0.9841
- Difference [2, 16]: −0.16

Compound: CC(=O)O.CN1C(=O)C[C@@H](C(=O)N[C@@H](Cc2cnc[nH]2)C(=O)N2CCC[C@H]2C(N)=O)NC1=O [Taltirelin (acetate)]
- Difference ([1]; Complete minus Cholesterol-free, […]): −0.12
- Cholesterol-free [1, 22]: 1.092
- Complete [1, 21]: 0.9679
- Cholesterol-free media + simvastatin (0.04 μM) [2, 20]: 1.154
- Complete Media [2, 21]: 1.062
- Difference ([2]; complete media vs cholesterol-free media + simvastatin (0.04 μM), […]): −0.09

Compound: CC12CCC(CC1=O)C2(C)C (stereo not drawn) [(+)-Camphor]
- Cholesterol-free [1, 8]: 0.9458
- Complete [1, 9]: 1.19
- Difference [1, 23]: 0.24
- Cholesterol-free media + simvastatin (0.04 μM) [2, 5]: 0.9198
- Complete Media [2, 6]: 1.05
- Difference [2, 7]: 0.13

Compound: O=P(O)(O)C(O)(Cc1cccnc1)P(=O)(O)O [Risedronate (sodium)]
- Difference [1, 3]: −0.30
- Cholesterol-free [1, 4]: 1.022
- Complete ([1]; NCI-H292 cells, complete media): 0.7264
- Cholesterol-free media + simvastatin (0.04 μM) [2, 5]: 0.8847
- Complete Media [2, 6]: 0.9961
- Difference [2, 7]: 0.11

Compound: Oc1c(Cl)cc(Cl)c2cccnc12 [Chloroxine]
- Cholesterol-free [1, 8]: 1.086
- Complete [1, 9]: 1.288
- Difference [1, 23]: 0.20
- Cholesterol-free media + simvastatin (0.04 μM) [2, 5]: 0.8888
- Complete Media [2, 6]: 1.011
- Difference [2, 7]: 0.12

Compound: CC(C)n1nccc1-c1ncccc1COc1cccc(O)c1C=O [Voxelotor]
- Cholesterol-free [1, 4]: 1.146
- Complete ([1]; NCI-H292 cells, complete media): 0.7013
- Difference [1, 13]: −0.44
- Cholesterol-free media + simvastatin (0.04 μM) [2, 24]: 1.853
- Complete Media [2, 25]: 1.475
- Difference [2, 16]: −0.38

Compound: Clc1ccccc1CN1CCc2sccc2C1 [Ticlopidine (hydrochloride)]
- Difference [1, 17]: −0.88
- Cholesterol-free [1, 18]: 1.64
- Complete [1, 19]: 0.7613
- Cholesterol-free media + simvastatin (0.04 μM) [2, 5]: 1.416
- Complete Media [2, 6]: 1.478
- Difference [2, 7]: 0.06

Compound: CNCC[C@H](Oc1cccc2ccccc12)c1cccs1 [Duloxetine (hydrochloride)]
- Cholesterol-free [1]: 1.331
- Complete [1]: 1.434
- Difference [1]: 0.10
- Cholesterol-free media + simvastatin (0.04 μM) [2]: 1.089
- Complete Media [2]: 1.143
- Difference [2]: 0.05

Compound: Oc1c(Br)cc(Br)c2cccnc12 [Broxyquinoline]
- Cholesterol-free [1, 8]: 1.044
- Complete [1, 9]: 1.24
- Difference [1, 23]: 0.20
- Cholesterol-free media + simvastatin (0.04 μM) [2, 20]: 1.072
- Complete Media [2, 21]: 1.219
- Difference [2, 7]: 0.15

Compound: CC#CCC(C)[C@H](O)/C=C/[C@@H]1[C@H]2C/C(=C/CCCC(=O)O)C[C@H]2C[C@H]1O (stereo partly drawn) [Iloprost]
- Difference [1, 17]: −0.58
- Cholesterol-free [1, 18]: 1.473
- Complete [1, 19]: 0.8944
- Cholesterol-free media + simvastatin (0.04 μM) [2, 14]: 1.189
- Complete Media [2, 15]: 0.9963
- Difference [2, 16]: −0.19

Compound: CC1=C(C(=O)O)N2C(=O)[C@@H](NC(=O)[C@H](N)c3ccccc3)[C@H]2SC1 [Cephalexin]
- Cholesterol-free [1, 4]: 1.173
- Complete ([1]; NCI-H292 cells, complete media): 0.8408
- Difference [1, 13]: −0.33
- Cholesterol-free media + simvastatin (0.04 μM) [2, 24]: 1.341
- Complete Media [2, 25]: 0.9798
- Difference [2, 16]: −0.36

Compound: O=C(O)CSCC(=O)NC1CCSC1=O (stereo not drawn) [Erdosteine]
- Difference [1, 3]: 0.06
- Cholesterol-free [1, 8]: 1.459
- Complete [1, 9]: 1.516
- Cholesterol-free media + simvastatin (0.04 μM) [2, 5]: 1.196
- Complete Media [2, 6]: 1.238
- Difference [2, 7]: 0.04

Compound: Clc1ccc2c(c1)C(N1CCNCC1)=Nc1ccccc1O2 [Amoxapine]
- Cholesterol-free [1, 8]: 1.3
- Complete [1, 9]: 1.39
- Difference [1, 23]: 0.09
- Cholesterol-free media + simvastatin (0.04 μM) [2, 24]: 1.586
- Complete Media [2, 25]: 1.017
- Difference [2, 16]: −0.57
